Assay results reported in patent US20110086103A1, “NOVEL MANDELATE SALT OF FESOTERODINE” (ACTAVIS GROUP PTC EHF, priority 2008, published 2011).
Structures can show the parent of a compound that is named as a salt.

Assays:
[1] = Moisture absorption during filtration of the salt; type: physicochemical
[2] = Stability of solid state form (polymorphic stability by P-XRD on storage); type: physicochemical; conditions: stored 3 months in self-sealing LDPE bag, normal atmospheric conditions, room temperature
Method: The X-Ray powder diffraction was measured by an X-ray powder Diffractometer equipped with CuKα-radiations (40 kV, 40 mA) in wide-angle X-ray Diffractometer of BRUKER axs, D8 ADVANCE. The sample was analyzed using the following instrument parameters: measuring range 3-45° 2-theta; step width=0.01579°; and measuring time per step=0.11 sec. Fesoterodine mandelate was prepared according to the process exemplified in Example 1 and was packed in a self-sealing low-density polyethylene (LDPE) bag. The material was stored for 3 months under normal atmospheric conditions at room temperature and checked for polymorphic stability.

Compound	moisture absorption [1]	polymorphic stability (maintenance of the original P-XRD pattern) [2]
CC(C)C(=O)Oc1ccc(CO)cc1[C@H](CCN(C(C)C)C(C)C)c1ccccc1 [fumarate salt, fesoterodine fumarate, reference compound]	absorbs moisture	
CC(C)C(=O)Oc1ccc(CO)cc1[C@H](CCN(C(C)C)C(C)C)c1ccccc1.O=C(O)C(O)c1ccccc1 [Fesoterodine mandelate, mandelate salt of 2-[(1R)-3-[bis(1-methylethyl)amino]-1-phenylpropyl]-4-hydroxymethylphenyl isobutyrate]	does not absorb moisture	retain its polymorphic form
